Measured values from ChEMBL document CHEMBL1250507, “Novel indolylmaleimide acts as GSK-3beta inhibitor in human neural progenitor cells” (Bioorg Med Chem, 2010).
Active and inactive are the calls of the source. The calls are words filed in the database; no cut-off is given here.

Columns and labels:
[1] = biological target: T1, Glycogen synthase kinase-3 beta (Homo sapiens, UniProt P49841); conditions: ReNcell VM, at 3 µM
Target sequence in this assay (P49841 whole entry, looked up): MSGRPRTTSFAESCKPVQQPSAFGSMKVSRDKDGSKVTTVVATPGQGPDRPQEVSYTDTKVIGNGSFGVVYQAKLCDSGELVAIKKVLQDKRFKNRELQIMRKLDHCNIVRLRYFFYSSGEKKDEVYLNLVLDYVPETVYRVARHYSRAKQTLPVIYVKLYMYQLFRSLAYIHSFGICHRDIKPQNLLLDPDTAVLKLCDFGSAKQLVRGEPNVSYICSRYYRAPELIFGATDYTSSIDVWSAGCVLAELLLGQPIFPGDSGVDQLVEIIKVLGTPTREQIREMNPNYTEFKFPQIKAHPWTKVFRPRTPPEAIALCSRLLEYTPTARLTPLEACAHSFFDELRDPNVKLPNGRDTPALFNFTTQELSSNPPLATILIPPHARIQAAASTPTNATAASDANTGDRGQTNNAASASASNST

[2] = Antiproliferative activity against human ReNcell VM cells assessed as growth doubling time at 3 uM measured every 24 hrs; type: functional
[3] = Induction of neuronal differentiation in human ReNcell VM cells assessed as beta3-tubulin positive cells after 3 days by FACS analysis relative to control; type: functional
[4] = biological target: T1, Glycogen synthase kinase-3 beta; test: Inhibition of GSK3-beta after 30 mins by luminescence assay
Target sequence in this assay (P49841 whole entry): as the sequence (P49841 whole entry, looked up) above

ReNcell VM [5] = test: Antiproliferative activity against human ReNcell VM cells assessed as reduction of cell proliferation at 3 uM after 72 hrs; type: functional, cell-based
[6] = biological target: T1, Glycogen synthase kinase-3 beta; conditions: ReNcell VM, 3 uM
Target sequence in this assay (P49841 whole entry, looked up): as above
Description: Inhibition of GSK3-beta in human ReNcell VM cells assessed as residual activity at 3 uM after 2 hrs by immunoprecipitation analysis relative to control

[7] = biological target: T1, Glycogen synthase kinase-3 beta; conditions: ReNcell VM, 3 uM; remark: listed apart in the source
Target sequence in this assay (P49841 whole entry, looked up): as above

[8] = biological target: T1, Glycogen synthase kinase-3 beta; conditions: ReNcell VM, 3 uM; remark: listed apart in the source
Target sequence in this assay (P49841 whole entry, looked up): as above

ReNcell VM [9] = test: Cytotoxicity against human ReNcell VM cells assessed as cell viability at 3 uM after 72 hrs; type: functional, cell-based
[10] = biological target: T1, Glycogen synthase kinase-3 beta; test: Inhibition of GSK-3-beta-mediated Wnt signaling in human ReNcell VM cells assessed as increase in accumulation of beta-catenin at 1 uM after 2 hrs by ELISA relative to control
Target sequence in this assay (P49841 whole entry, looked up): as above

Structure (SMILES)	inhibition [1]	further results
Cc1[nH]c2ccccc2c1C1=C(NCCc2ccc(O)cc2)C(=O)N(C)C1=O	inactive	
Cc1[nH]c2ccccc2c1C1=C(N2CCCCC2)C(=O)N(C)C1=O	inactive	
Cc1[nH]c2ccccc2c1C1=C(NCCc2ccc(F)cc2)C(=O)N(C)C1=O	27%	Time [2]: 26.5 h; Activity [3]: 3.7%; IC50 [4]: 0.053 µM; Activity (ReNcell VM [5]): Active; residual activity [6]: 27%; inhibition [7]: Active
CCCCOC(=O)C1=C(c2c(C)[nH]c3ccccc23)C(=O)N(C)C1=O	inactive	
Cc1[nH]c2ccccc2c1C1=C(C(=O)N2CCN(c3ccccc3)CC2)C(=O)N(C)C1=O	inactive	
Cc1[nH]c2ccccc2c1C1=C(C(=O)N2CCOCC2)C(=O)N(C)C1=O	inactive	
CCCCNC1=C(c2c(C)[nH]c3ccccc23)C(=O)N(C)C1=O	inactive	
Cc1[nH]c2ccccc2c1C1=C(C(=O)N2CCCCC2)C(=O)N(C)C1=O	inactive	
CCCCNC(=O)C1=C(c2c(C)[nH]c3ccccc23)C(=O)N(CCCC)C1=O	inactive	
Cc1[nH]c2ccccc2c1C1=C(NCCc2c[nH]c3ccccc23)C(=O)N(C)C1=O	inactive	
Cc1[nH]c2ccccc2c1C1=C(N2CCN(c3ccccc3)CC2)C(=O)N(C)C1=O	inactive	
Cn1cc(C2=C(c3ccc(Cl)cc3Cl)C(=O)NC2=O)c2ccccc21 [SB-216763]	50%	Time [2]: 24.4 h; Activity [3]: 3.2%; inhibition [8]: 55%; Activity (ReNcell VM [5]): Active; Activity (ReNcell VM [9]): Not toxic; residual activity [6]: 22%; inhibition [7]: inactive
O=C1Cc2c([nH]c3ccc(Br)cc23)-c2ccccc2N1		inhibition [10]: 30%
Cc1[nH]c2ccccc2c1C1=C(NCCc2ccc(Cl)cc2)C(=O)N(C)C1=O	inactive	
Cc1[nH]c2ccccc2c1C1=C(NCCc2ccc(F)c(F)c2)C(=O)N(C)C1=O	inactive	

More lines, main results first:

inhibition [1]	Structure (SMILES)	further results
inactive	CN1C(=O)C(NCCc2ccc(F)cc2)=C(c2c[nH]c3ccc(F)cc23)C1=O	
inactive	COc1ccc2[nH]cc(C3=C(NCCc4ccc(F)cc4)C(=O)N(C)C3=O)c2c1	
inactive	CCCCNC(=O)C1=C(c2c(C)[nH]c3ccccc23)C(=O)N(C)C1=O	
inactive	CN1C(=O)C(NCCc2ccc(F)cc2)=C(c2c[nH]c3ccccc23)C1=O	
inactive	COc1ccc(CCNC2=C(c3c(C)[nH]c4ccccc34)C(=O)N(C)C2=O)cc1	
inactive	CCCCNC1=C(c2c(C)[nH]c3ccccc23)C(=O)N(CCCC)C1=O	
inactive	CCOC(=O)C1=C(c2c(C)[nH]c3ccccc23)C(=O)N(C)C1=O	
inactive	Cc1[nH]c2ccccc2c1C1=C(NCCc2ccccc2)C(=O)N(C)C1=O	
inactive	Cc1[nH]c2ccccc2c1C1=C(N2CCOCC2)C(=O)N(C)C1=O	
